The record followed here is US20040266862A1, “Method of improving animal tissue quality by supplementing the animal diet with mixed tocotrienols” (priority 2003, published 2004).

Holding throughout (assay type): in vivo
Experiment [1] concerns swine. Nature of the experiment: 2002 swine feed test: 24 hour raw pork loin quality.
For experiment [2], the system named is chickens. Description: 2002 poultry feed test: TBARS content of cooked ground chicken thighs. The conditions noted are these: 300 ppm in diet. The source says:
(§1) Applicants also assessed the effects of antioxidant supplementation on meat quality in an experiment in which meat from chickens fed one of four dietary treatments was compared. On Jul. 25, 2002, day-old chicks were obtained from a commercial company. The birds were housed in a brooder until Aug. 11, 2002. On Aug. 11, forty-eight birds were randomly allocated to one of four pens (twelve birds per pen). Birds in each pen were offered ad libitum access to one of four treatment diets: control, 300 ppm AT, 300 ppm GT or 150 ppm MT. The MT premix contained a commercially available MT supplement (7.5% alpha-, 12.3% gamma- and 3.0% delta-tocotrienol and 7.2% alpha-tocopherol) mixed with ground corn as the carrier. The total MT premix (ground corn plus MT supplement) represented 2.5% w/w of the finished MT supplemented feed.
(§2) On Sep. 13, 2002 (seven weeks of age) the birds were harvested, identified and frozen at −20C. The birds were stored frozen at −20C for 136-159 days post slaughter. On days 136, 156, 157, 158 and 159 (where available) two birds per dietary treatment were thawed in cold water. Meat was removed from the breasts (pectoralis major muscles) and thighs. Breast meat from each chicken was ground through a 3 mm disc in a Krups Butcher Shop 150W Professional Power Meat Grinder. Thigh meat from two chickens was combined (for days 156, 157, 158 and 159; day 136 thigh meat was kept separate for each bird) and ground in a similar manner. Patties were made (10 g for breast; 60 g for thighs) using a 100×15 mm Petri dish as a mold.
(§3) Raw ground chicken breast and thigh patties were cooked in a pre-warmed George Foreman grill for five minutes per breast patty and four minutes per thigh patty. Cooked patties were allowed to cool under refrigeration and then quartered (day 136) or halved (days 156, 157, 158 and 159). Each quarter or half was stored at 2.2C in zip lock baggies for a designated period of time. One quarter was used per sampling period. Sampling periods were 0 hours, 4 hours, 26 hours and 48 hours. Thiobarbituric acid reacting substances (TBARS) analyses was performed according to Ahn et al., and the results are shown in the following two tables.

In experiment [3] the test system is chickens. Description: 2002 poultry feed test: TBARS content of raw ground chicken breasts. The conditions noted are these: 300 ppm in diet.
Description: as §1, §2
Patties were quartered and each quarter was stored at 2.2C for a designated period of time. One quarter was used per sampling period. Sampling periods for the raw ground meat were day 0, day 3, day 7 and day 10. Thiobarbituric acid reacting substances (TBARS) analyses was performed on the raw ground chicken breasts and thighs according to the procedure of Ahn, D. U., D. G. Olson, C. Jo, X. Chen, C. Wu, and J. I. Lee, “Effect of Muscle Type, Packaging, and Irradiation on Lipid Oxidation, Volatile Production and Color in Raw Pork Patties”, Meat Sci. 49:27-39 (1998).

In experiment [4] the test system is chickens. Description: 2002 poultry feed test: TBARS content of cooked ground chicken breasts. The conditions noted are these: 300 ppm in diet.
Description: as §1, §2, §3

Experiment [5] has as its system swine. Description: 2002 swine feed test: 24 hour raw pork loin quality. Details: Marbling / Fat Firmness / Color Score: scale not given here. From the text:
Applicants conducted a second swine feeding trial to further determine the effects on meat quality of supplementation of a swine diet with alpha-tocopherol (AT), gamma-tocopherol (GT) or mixed tocotrienols (MT). Seventy-two barrows (˜75 lbs.) were transported to the Pioneer Livestock Nutrition Center (PLNC) and randomly placed into individual pens with water and feed provided ad libitum. The pigs received a common diet for seven days. On the eighth day the pigs were weighed individually and a uniform group of sixty pigs with an average body weight of about 75 pounds was selected. The pigs were randomly assigned one of five dietary treatments with 12 pigs per treatment. The feeding trial was initiated on Mar. 12, 2002 and ended on Jun. 19, 2002.
The pigs were fed a corn-soybean meal diet formulated to provide adequate levels of all nutrients. In addition, one of five dietary treatments was assigned to each group: control, 300 ppm AT, 450 ppm GT, 150 ppm MT, and 300 ppm MT. To each diet a corn oil premix and a ground corn premix were added with the corn oil premix as a carrier for the supplemental tocopherols and the ground corn premix as the carrier for the MT. The MT supplement was obtained commercially from Fuji Chemical Industries (U.S.A.) Inc. of Robbinsville, N.J., and contained 7.5% alpha-, 12.3% gamma- and 3.0% delta-tocotrienol, as well as 7.2% alpha-tocopherol.
The pigs were harvested in June 2002 when they had reached an average weight of about 245 pounds. Following a twelve-hour feed withdrawal, the pigs were transported to a commercial processing facility. At the commercial processing facility, individual hot carcass weight, back fat depth and loin depth were measured and recorded on the day of slaughter. Loin pH, loin color value (Minolta L*), Marbling and fat firmness were recorded 24 hours post mortem.

In experiment [6] the test system is swine. Description: 2002 swine feed test: sensory characteristics of cooked pork loin chops. From the text:
Applicants conducted a second swine feeding trial to further determine the effects on meat quality of supplementation of a swine diet with alpha-tocopherol (AT), gamma-tocopherol (GT) or mixed tocotrienols (MT). Seventy-two barrows (˜75 lbs.) were transported to the Pioneer Livestock Nutrition Center (PLNC) and randomly placed into individual pens with water and feed provided ad libitum. The pigs received a common diet for seven days. On the eighth day the pigs were weighed individually and a uniform group of sixty pigs with an average body weight of about 75 pounds was selected. The pigs were randomly assigned one of five dietary treatments with 12 pigs per treatment. The feeding trial was initiated on Mar. 12, 2002 and ended on Jun. 19, 2002. The pigs were fed a corn-soybean meal diet formulated to provide adequate levels of all nutrients. In addition, one of five dietary treatments was assigned to each group: control, 300 ppm AT, 450 ppm GT, 150 ppm MT, and 300 ppm MT. To each diet a corn oil premix and a ground corn premix were added with the corn oil premix as a carrier for the supplemental tocopherols and the ground corn premix as the carrier for the MT. The MT supplement was obtained commercially from Fuji Chemical Industries (U.S.A.) Inc. of Robbinsville, N.J., and contained 7.5% alpha-, 12.3% gamma- and 3.0% delta-tocotrienol, as well as 7.2% alpha-tocopherol. A one-inch thick chop was collected from the 10th rib region of each pig carcass to evaluate the effects of dietary treatment on cooked product characteristics. Sensory evaluation was conducted using a trained sensory panel. Each panelist evaluated a ½ inch cube removed from the center of a cooked pork chop immediately after reaching 71 degrees C. Samples were evaluated for degree of juiciness, tenderness, chewiness, pork flavor and off-flavor intensity.

Where [7] appears, read: scale of 1 to 10, 300 ppm in diet.
[8] abbreviates: scale of 1 to 10, 450 ppm in diet.

Marks after values point to notes of the source that are not given here.

Turning to `Cc1c(C)c2c(c(C)c1O)CC[C@@](C)(CCC[C@H](C)CCC[C@H](C)CCCC(C)C)O2` [AT, alpha-tocopherol], in the experiment on swine [1] (300 ppm in diet), the “PH, hour 22” value is recorded as 5.86. Besides, the TBARS content with chickens [2] (0 hours at 2.2C) is 0.4568^b mg Malonaldehyde/kg sample; with chickens [2] (4 hours at 2.2C), 0.8954^d mg Malonaldehyde/kg sample; with chickens [2] (26 hours at 2.2C) it was 0.8968^d mg Malonaldehyde/kg sample; in the experiment with chickens [2] (48 hours at 2.2C) it was 1.1669^d mg Malonaldehyde/kg sample; with chickens [3] (Day 0 at 2.2C) it was 0.4569 mg Malonaldehyde/kg sample; with chickens [3] (Day 3 at 2.2C) it was 0.1214 mg Malonaldehyde/kg sample. For the same compound, the TBARS content in the experiment with chickens [3] (Day 7 at 2.2C) is listed as 0.1243 mg Malonaldehyde/kg sample; in the experiment with chickens [3] (Day 10 at 2.2C), 0.1151^b mg Malonaldehyde/kg sample; in the experiment on chickens [4] (0 hours at 2.2C) it was 0.3067 mg Malonaldehyde/kg sample; in the experiment with chickens [4] (4 hours at 2.2C), 0.4354^b mg Malonaldehyde/kg sample; in the experiment on chickens [4] (26 hours at 2.2C), 0.3366^b mg Malonaldehyde/kg sample; with chickens [4] (48 hours at 2.2C), 0.4433^b mg Malonaldehyde/kg sample. The “Color Score” value in the experiment with swine [5] (300 ppm in diet) was determined as 3.2. Also, the “Fat Firmness” value in the experiment on swine [5] (300 ppm in diet) is reported as 2.3. The “Hunter L*” value in the experiment with swine [5] (300 ppm in diet) is given as 48.89. Further, the Marbling in the experiment with swine [5] (300 ppm in diet) came out at 2.1. Besides, the Chewiness in the experiment with swine [6] (setting [7]) is given as 2.3. The Juiciness in the experiment on swine [6] (setting [7]) turned out to be 6.0. The compound further returned an Off-flavor in the experiment on swine [6] (setting [7]) of 4.3. The “Pork Flavor” value in the experiment on swine [6] (setting [7]) is recorded as 1.8. Also, the Tenderness with swine [6] (setting [7]) is 7.8.
`Cc1c(O)cc2c(c1C)O[C@](C)(CCC[C@H](C)CCC[C@H](C)CCCC(C)C)CC2` [GT, gamma-tocopherol]: the “PH, hour 22” value in the experiment with swine [1] (450 ppm in diet) is listed as 5.76. Moreover, the TBARS content is reported as 0.4839^b mg Malonaldehyde/kg sample in the experiment with chickens [2] (0 hours at 2.2C); 0.6715^d mg Malonaldehyde/kg sample in the experiment on chickens [2] (4 hours at 2.2C); 1.2515^d mg Malonaldehyde/kg sample with chickens [2] (26 hours at 2.2C); 1.6312^d mg Malonaldehyde/kg sample in the experiment with chickens [2] (48 hours at 2.2C); 0.3022 mg Malonaldehyde/kg sample in the experiment with chickens [3] (Day 0 at 2.2C); 0.1926 mg Malonaldehyde/kg sample in the experiment with chickens [3] (Day 3 at 2.2C). Moreover, the TBARS content in the experiment on chickens [3] (Day 7 at 2.2C) was 0.0860 mg Malonaldehyde/kg sample; in the experiment on chickens [3] (Day 10 at 2.2C), 0.1428^b mg Malonaldehyde/kg sample; in the experiment with chickens [4] (0 hours at 2.2C) it was 0.3809 mg Malonaldehyde/kg sample; in the experiment with chickens [4] (4 hours at 2.2C), 0.3443^b mg Malonaldehyde/kg sample; with chickens [4] (26 hours at 2.2C), 0.4559^b mg Malonaldehyde/kg sample; in the experiment on chickens [4] (48 hours at 2.2C), 0.6120^b mg Malonaldehyde/kg sample. Further, the “Color Score” value in the experiment on swine [5] (450 ppm in diet) was found to be 3.1. In the experiment with swine [5] (450 ppm in diet), the “Fat Firmness” value amounted to 2.0. Also, the “Hunter L*” value in the experiment with swine [5] (450 ppm in diet) is 48.81. Also, in the experiment with swine [5] (450 ppm in diet), the Marbling was determined as 1.9. The same compound had a Chewiness with swine [6] (setting [8]) of 2.5. In the experiment with swine [6] (setting [8]), the Juiciness came to 5.4. In the experiment on swine [6] (setting [8]), this compound showed an Off-flavor of 3.9. In addition, in the experiment with swine [6] (setting [8]), the “Pork Flavor” value is listed as 1.8. Further, in the experiment on swine [6] (setting [8]), the Tenderness came to 7.3.
